The source of these data is patent US5114918A, “Endothelin antagonistic cyclic pentapeptides” (Banyu Pharmaceutical Co., Ltd., priority 1989, dated 1992).

Numbered stars: 1 amine (or outer) side, 2 acyl side, 3 side chain; on linkers, the order of the positions; unused ones are H or OH. Square brackets hold non-standard residues; d marks the D form. Peptide text beside a SMILES is read from it. * marks the point of attachment. dGly(2-thienyl) = N[C@@H](C(=O)O)c1cccs1; X5 = O=C([C@H](N[*:1])C1=CCC=CC1)[*:2]; dCya = N[C@H](CS(=O)(=O)O)C(=O)O; dPen = CC(C)(S)[C@@H](N)C(=O)O; NMeL = CN[C@@H](CC(C)C)C(=O)O; Pip = O=C(O)[C@@H]1CCCCN1; Nle = CCCC[C@H](N)C(=O)O; Boc = CC(C)(C)OC(=O)*; Aib = CC(C)(N)C(=O)O; Moc = COC(=O)*; For = O=C*

The first experiment addresses T1, endothelin receptor (membrane of smooth muscle tissue of porcine aorta) (Sus scrofa, UniProt Q29010).
T1 construct: from tissue; host or cells: smooth muscle tissue of porcine aorta (membrane fraction)
T1 sequence (Q29010 21-427): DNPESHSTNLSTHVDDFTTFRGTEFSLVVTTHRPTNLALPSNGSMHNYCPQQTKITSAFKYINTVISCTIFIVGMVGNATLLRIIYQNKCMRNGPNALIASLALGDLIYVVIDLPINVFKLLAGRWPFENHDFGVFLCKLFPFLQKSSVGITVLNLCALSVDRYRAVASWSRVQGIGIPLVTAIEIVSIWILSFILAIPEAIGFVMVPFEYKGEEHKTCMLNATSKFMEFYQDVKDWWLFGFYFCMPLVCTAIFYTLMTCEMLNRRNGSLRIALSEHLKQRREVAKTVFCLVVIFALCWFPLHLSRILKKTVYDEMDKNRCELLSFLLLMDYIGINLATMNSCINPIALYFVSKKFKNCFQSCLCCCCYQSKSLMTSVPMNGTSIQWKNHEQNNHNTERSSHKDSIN
Put plainly: Endothelin binding inhibition test (125I-endothelin-1, porcine aorta smooth muscle membrane). As to conditions: 1.1 μM of the test compound; porcine aorta smooth muscle membrane; 25° C, 4 hours. As to the method: Endothelin binding inhibition test
The smooth muscle tissue of porcine aorta was homogenized in a buffer solution of 10 mM MOPS, pH 7.4, at 4° C. by a polytron. To the homogenate, sucrose was added to a concentration of 20%, and the mixture was centrifuged at 1,000×g for 15 minutes, and the supernatant was further centrifuged at 10,000×g for 15 minutes. The supernatant thereof was further centrifuged at 90,000×g for 40 minutes. The membrane precipitate thereby obtained was suspended in a buffer solution of 5 mM HEPES/Tris, pH 7.4, at a concentration of 25 mg/ml.
Then, 16 μl of this membrane suspension was added to 340 μl of 50 mM Tris/HCl buffer, pH 7.4, containing 10 μM calcium chloride, 10 μM magnesium chloride, 0.1 mM PMSF, 1 μM pepstatin A, 2 μM leupeptin, 1 mM 1,10-phenanthroline and 0.1% bovine serum albumin. To this suspension, 4 μl of (A) endothelin-1 (for nonspecific binding: 0.2 μM as the final concentration), (B) buffer solution A (for total control binding), or (C) a test compound (1.1 μM as the final concentration), was added. Further, to each suspension, 40 μl of ^125 I-endothelin-1 (12000-18000 cpm) was added. These mixtures were incubated at 25° C for 4 hours, then subjected to filtration on a glass filter GF/C and then washed with 5 mM HEPES/Tris, pH 7.4, containing 0.3% bovine serum albumin. Then, the radioactivity trapped by the glass filter was measured, and the ^125 I-endothelin-1 binding inhibition D (%) at 1.1 μM of the test compound was determined by the following equation. [formula] Each test was performed in triplicate.
Regarding “cyclo(-DTrp-DAsp-Pro-DtertLeu-Leu-) [Example 71]”, the “125I-endothelin-1 binding inhibition, Inhibition (%)” value is reported as 80%.

“cyclo(-DTrp(CHO)-DAsp-Pro-DaIle-Leu-) [Example 53]”: the “125I-endothelin-1 binding inhibition, Inhibition (%)” value is given as 89%.

With “cyclo(-DTrp-DAsp-Cys(O3 Na)-DVal-Leu-) [Example 24]”, the “125I-endothelin-1 binding inhibition, Inhibition (%)” value is listed as 78%.

Take “cyclo(-DTrp(CHO)-DAsp-Met(O)-DVal-Leu-) [Example 77]”: the “125I-endothelin-1 binding inhibition, Inhibition (%)” value worked out at 78%.

Turning to “cyclo(-DTrp(CHO)-DGlu-Ala-DaIle-Leu-) [Example 52]”, the “125I-endothelin-1 binding inhibition, Inhibition (%)” value came out at 64%.

The experiment is the same for the next values; noted with them: 1.1 μM of the test compound; porcine aorta smooth muscle membrane; 25° C, 4 hours; read-out: 125I-endothelin-1 binding inhibition, Inhibition (%).
Turning to `CCCC[C@@H]1NC(=O)[C@@H](C(C)C)NC(=O)[C@H](CO)NC(=O)[C@@H](CC(=O)O)NC(=O)[C@@H](Cc2cn(C=O)c3ccccc23)NC1=O` [Example 54, cyclo(-DTrp(CHO)-DAsp-Ser-DVal-Nle-)] (cyclo([Nle][dW](For)[dD]S[dV])), the inhibition at 1.1 µM worked out at 65%.

With `CC(C)C[C@@H]1NC(=O)[C@@H](C(C)C)NC(=O)[C@H](CCCCN)NC(=O)[C@@H](CC(=O)O)NC(=O)[C@@H](Cc2c[nH]c3ccccc23)NC1=O` [Example 4, cyclo(-DTrp-DAsp-Lys-DVal-Leu-)] (cyclo(K[dV]L[dW][dD])), the inhibition at 1.1 µM amounted to 74%.

On to `CC(C)C[C@@H]1NC(=O)[C@@H](C(C)C)NC(=O)[C@H](Cc2c[nH]cn2)NC(=O)[C@@H](CC(=O)O)NC(=O)[C@@H](Cc2c[nH]c3ccccc23)NC1=O` [Example 18, cyclo(-DTrp-DAsp-His-DVal-Leu-)] (cyclo(H[dV]L[dW][dD])), for which the inhibition at 1.1 µM was 69%.

Take `CC(C)C[C@@H]1NC(=O)[C@@H](c2cccs2)NC(=O)[C@@H]2CCCN2C(=O)[C@@H](CC(=O)O)NC(=O)[C@@H](Cc2c[nH]c3ccccc23)NC1=O` [Example 67, cyclo(-DTrp-DAsp-Pro-DThg-Leu-)] (cyclo(L[dW][dD]P[dGly(2-thienyl)])): the inhibition at 1.1 µM worked out at 82%.

Regarding `CC(C)C[C@H]1C(=O)N[C@H](Cc2c[nH]c3ccccc23)C(=O)N[C@H](CC(=O)O)C(=O)N2CCC[C@H]2C(=O)N[C@H](C(C)C)C(=O)N1C` [Example 69, cyclo(-DTrp-DAsp-Pro-DVal-MeLeu-)] (cyclo([NMeL][dW][dD]P[dV])), the inhibition at 1.1 µM was 85%.

On to `CC(C)C[C@@H]1NC(=O)C(C)(C)NC(=O)[C@@H]2CCCN2C(=O)[C@@H](CC(=O)O)NC(=O)[C@@H](Cc2c[nH]c3ccccc23)NC1=O` [Example 62, cyclo(-DTrp-nAsp-Pro-Aib-Leu-)] (cyclo([Aib]L[dW][dD]P)), for which the inhibition at 1.1 µM was determined as 60%.

For the compound `COC(=O)n1cc(C[C@H]2NC(=O)[C@H](CC(C)C)NC(=O)[C@@H](C(C)C)NC(=O)[C@@H]3CCCN3C(=O)[C@@H](CC(=O)O)NC2=O)c2ccccc21` [Example 86, cyclo(-DTrp(COOCH3)-DAsp-Pro-DVal-Leu-)] (cyclo(L[dW](Moc)[dD]P[dV])), the inhibition at 1.1 µM worked out at 90%.

Take `CC(C)C[C@@H]1NC(=O)[C@@H](C(C)C)NC(=O)[C@H]([C@@H](C)O)NC(=O)[C@@H](CC(=O)O)NC(=O)[C@@H](Cc2c[nH]c3ccccc23)NC1=O` [Example 27, cyclo(-DTrp-DAsp-Thr-DVal-Leu-)] (cyclo(L[dW][dD]T[dV])): the inhibition at 1.1 µM turned out to be 66%.

On to `CC(C)C[C@@H]1NC(=O)[C@@H](C(C)C)NC(=O)[C@@H]2CCCN2C(=O)[C@@H](CCC(=O)O)NC(=O)[C@@H](Cc2c[nH]c3ccccc23)NC1=O` [Example 10, cyclo(-DTrp-DGlu-Pro-DVal-Leu-)] (cyclo(L[dW][dE]P[dV])), for which the inhibition at 1.1 µM is 54%.

With `CC(C)C[C@@H]1NC(=O)[C@@H](C(C)C)NC(=O)[C@@H]2CCCN2C(=O)[C@@H](CC(=O)O)NC(=O)[C@@H](Cc2cn(C=O)c3ccccc23)NC1=O` [Example 51, cyclo(-DTrp(CHO)-DAsp-Pro-DVal-Leu-)] (cyclo(L[dW](For)[dD]P[dV])), the inhibition at 1.1 µM was found to be 84%.

For the compound `CSCC[C@@H]1NC(=O)[C@@H](CC(=O)O)NC(=O)[C@@H](Cc2cn(C=O)c3ccccc23)NC(=O)[C@H](CC(C)C)NC(=O)[C@@H](C(C)C)NC1=O` [Example 55, cyclo(-DTrp(CHO)-DAsp-Met-DVal-Leu-)] (cyclo(L[dW](For)[dD]M[dV])), the inhibition at 1.1 µM stood at 81%.

Consider `CC(C)[C@H]1NC(=O)[C@H](C)NC(=O)[C@@H](CC(=O)O)NC(=O)[C@@H](Cc2c[nH]c3ccccc23)NC(=O)[C@@H]2CCCN2C1=O` [Example 39, cyclo(-DTrp-DAsp-Ala-DVal-Pro-)] (cyclo(A[dV]P[dW][dD])), for which the inhibition at 1.1 µM is 18%.

For `CC(C)C[C@@H]1NC(=O)[C@@H](CC(C)C)NC(=O)[C@H](C)NC(=O)[C@@H](CC(=O)O)NC(=O)[C@@H](Cc2c[nH]c3ccccc23)NC1=O` [Example 28, cyclo(-DTrp-DAsp-Ala-DLeu-Leu-)] (cyclo(A[dL]L[dW][dD])), the inhibition at 1.1 µM was 51%.

For the compound `CC(C)C[C@@H]1NC(=O)[C@@H](C(C)(C)S)NC(=O)[C@@H]2CCCN2C(=O)[C@@H](CC(=O)O)NC(=O)[C@@H](Cc2c[nH]c3ccccc23)NC1=O` [Example 60, cyclo(-DTrp-DAsp-Pro-DPen-Leu-)] (cyclo(L[dW][dD]P[dPen])), the inhibition at 1.1 µM came to 79%.

As to `CC(C)C[C@@H]1NC(=O)[C@@H](C(C)C)NC(=O)C(C)(C)NC(=O)[C@@H](CC(=O)O)NC(=O)[C@@H](Cc2c[nH]c3ccccc23)NC1=O` [Example 61, cyclo(-DTrp-DAsp-Aib-DVal-Leu-)] (cyclo([Aib][dV]L[dW][dD])), the inhibition at 1.1 µM was 66%.

Turning to `CC(C)C[C@@H]1NC(=O)[C@@H](C(C)C)NC(=O)[C@H](CCC(N)=O)NC(=O)[C@@H](CC(=O)O)NC(=O)[C@@H](Cc2c[nH]c3ccccc23)NC1=O` [Example 21, cyclo(-DTrp-nAsp-Gln-DVal-Leu-)] (cyclo(L[dW][dD]Q[dV])), the inhibition at 1.1 µM was found to be 73%.

In the case of `CC(C)C[C@@H]1NC(=O)[C@@H](C(C)C)NC(=O)[C@@H]2CCCN2C(=O)[C@@H](CC(=O)O)NC(=O)[C@@H](Cc2cn(C(=O)OC(C)(C)C)c3ccccc23)NC1=O` [Example 87, cyclo(-DTrp(COO^t Bu)-DAsp-Pro-DVal-leu-)] (cyclo(L[dW](Boc)[dD]P[dV])), the inhibition at 1.1 µM came out at 34%.

For `CC(C)C[C@@H]1NC(=O)[C@@H](C(C)C)NC(=O)[C@@H]2CCCCN2C(=O)[C@@H](CC(=O)O)NC(=O)[C@@H](Cc2c[nH]c3ccccc23)NC1=O` [Example 47, cyclo(-DTrp-DAsp-Pip-DVal-Leu-)] (cyclo(L[dW][dD][Pip][dV])), the inhibition at 1.1 µM stood at 89%.

`CC(C)C[C@@H]1NC(=O)[C@@H](C(C)C)NC(=O)[C@H](CC(=O)O)NC(=O)[C@@H](CC(=O)O)NC(=O)[C@@H](Cc2c[nH]c3ccccc23)NC1=O` [Example 22, cyclo(-DTrp-DAsp-Asp-DVal-Leu-)] (cyclo(D[dV]L[dW][dD])): the inhibition at 1.1 µM was found to be 75%.

For the compound `CC(C)C[C@@H]1NC(=O)[C@@H](C(C)C)NC(=O)[C@H](CCCNC(=N)N)NC(=O)[C@@H](CC(=O)O)NC(=O)[C@@H](Cc2c[nH]c3ccccc23)NC1=O` [Example 19, cyclo(-DTrp-DAsp-Arg-DVal-Leu-)] (cyclo(L[dW][dD]R[dV])), the inhibition at 1.1 µM came out at 70%.

For `CCCC[C@@H]1NC(=O)[C@@H](C(C)C)NC(=O)[C@H](CO)NC(=O)[C@@H](CC(=O)O)NC(=O)[C@@H](Cc2c[nH]c3ccccc23)NC1=O` [Example 36, cyclo(-DTrp-DAsp-Ser-DVal-Nle-)] (cyclo([Nle][dW][dD]S[dV])), the inhibition at 1.1 µM is 67%.

Turning to `CC(C)C[C@@H]1NC(=O)[C@@H](C(C)C)NC(=O)[C@H](C)NC(=O)[C@@H](CS(=O)(=O)O)NC(=O)[C@@H](Cc2c[nH]c3ccccc23)NC1=O` [Example 2, cyclo(-DTrp-DCys(O3 Na)-Ala-DVal-Leu-)] (cyclo(A[dV]L[dW][dCya])), the inhibition at 1.1 µM is 78%.

On to `CC(C)C[C@@H]1NC(=O)[C@@H](C(C)C)NC(=O)[C@H](CCCCN)NC(=O)[C@@H](CS(=O)(=O)O)NC(=O)[C@@H](Cc2c[nH]c3ccccc23)NC1=O` [Example 50, cyclo(-DTrp-nCys(O3 H)-Lys-DVal-Leu-)] (cyclo(K[dV]L[dW][dCya])), for which the inhibition at 1.1 µM came out at 57%.

Regarding `CC(C)C[C@@H]1NC(=O)[C@@H](C2=CCC=CC2)NC(=O)[C@@H]2CCCN2C(=O)[C@@H](CC(=O)O)NC(=O)[C@@H](Cc2c[nH]c3ccccc23)NC1=O` [Example 74, cyclo(-DTrp-DAsp-Pro-DDpg-Leu-)] (cyclo(L[dW][dD]P[X5])), the inhibition at 1.1 µM came to 89%.
